System: LG0703-F948-PDC spheroids with HUVEC/MSC, viability
Test: Anticancer human tumor LG0703-F948-PDC patient-derived lung adenocarcinoma cell line growth inhibition [IpAb]
Conditions: for IC50: curve of first compound; for viability, T/C: stronger effect = lower value
How it was run: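 Spheroids of 60% malignant cells, 25% HUVEC and 15% MSC were exposed to targeted agents combined with ipatasertib or abemaciclib. Doses started at or near clinical Cmax (10 microM when unknown) and fell in half-log steps.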
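Also: spheroids exposed to compounds for seven days before readout.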
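For viability, T/C in this document: T/C percent relative to DMSO vehicle wells set as 100% viability.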

CC(=O)c1c(C)c2cnc(Nc3ccc(N4CCNCC4)cn3)nc2n(C2CCCC2)c1=O + CC(C)NCC(C(=O)N1CCN(c2ncnc3c2C(C)CC3O)CC1)c1ccc(Cl)cc1
IC50 (second compound 0.1 µM): > 300 nM
IC50 (second compound 0.316 µM): > 300 nM
IC50 (second compound 1 µM): 2.55 nM
IC50 (second compound 3.16 µM): < 0.949 nM
IC50 (second compound 10 µM): < 0.949 nM
viability, T/C (second compound 0.1 µM, first compound 0.000949 µM): 86.8%
viability, T/C (second compound 0.1 µM, first compound 0.003 µM): 86%
viability, T/C (second compound 0.1 µM, first compound 0.00949 µM): 84.8%
viability, T/C (second compound 0.1 µM, first compound 0.03 µM): 73.3%
viability, T/C (second compound 0.1 µM, first compound 0.0949 µM): 80.4%
viability, T/C (second compound 0.1 µM, first compound 0.3 µM): 73.4%
viability, T/C (second compound 0.316 µM, first compound 0.000949 µM): 70.5%
viability, T/C (second compound 0.316 µM, first compound 0.003 µM): 69.7%
viability, T/C (second compound 0.316 µM, first compound 0.00949 µM): 60.5%
viability, T/C (second compound 0.316 µM, first compound 0.03 µM): 62.5%
viability, T/C (second compound 0.316 µM, first compound 0.0949 µM): 58.4%
viability, T/C (second compound 0.316 µM, first compound 0.3 µM): 60.3%
viability, T/C (second compound 1 µM, first compound 0.000949 µM): 54.6%
viability, T/C (second compound 1 µM, first compound 0.003 µM): 53.1%
viability, T/C (second compound 1 µM, first compound 0.00949 µM): 42.4%
viability, T/C (second compound 1 µM, first compound 0.03 µM): 41.8%
viability, T/C (second compound 1 µM, first compound 0.0949 µM): 42.1%
viability, T/C (second compound 1 µM, first compound 0.3 µM): 43.9%
viability, T/C (second compound 3.16 µM, first compound 0.000949 µM): 50.1%
viability, T/C (second compound 3.16 µM, first compound 0.003 µM): 41.8%
viability, T/C (second compound 3.16 µM, first compound 0.00949 µM): 41.7%
viability, T/C (second compound 3.16 µM, first compound 0.03 µM): 42.2%
viability, T/C (second compound 3.16 µM, first compound 0.0949 µM): 34.9%
viability, T/C (second compound 3.16 µM, first compound 0.3 µM): 33.5%
viability, T/C (second compound 10 µM, first compound 0.000949 µM): 41.5%
viability, T/C (second compound 10 µM, first compound 0.003 µM): 37.9%
viability, T/C (second compound 10 µM, first compound 0.00949 µM): 43.5%
viability, T/C (second compound 10 µM, first compound 0.03 µM): 40%
viability, T/C (second compound 10 µM, first compound 0.0949 µM): 33.5%
viability, T/C (second compound 10 µM, first compound 0.3 µM): 27.5%

— PubChem BioAssay AID2060330 (Molecular Pharmacology Branch, DTP, NCI, 2025)
